From patent US20230174538A1, “Tricyclic heterocycles” (Merck Patent GmbH, priority 2020, published 2023)

Experiments:
Type in all cases: cell-based
YAP-TEAD interaction = assay: SK-HEP-1 reporter assay (8xTEAD responsive elements driving NanoLuc luciferase); details: Homo sapiens, SK-HEP1, SK-HEP-1 reporter assay
Outline: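 Luminescence after NanoGlo addition gave reporter activity, and IC50 values came from duplicate 10-point curves (top final concentration 30 μM, 0.3% DMSO). The cells were SK-HEP-1 with a stably integrated 8×TEAD-driven NanoLuc gene, exposed to compound for 24 h at 37 °C.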

NCI-H226 cells = assay: Viability assay in NCI-H226 (Yap-dependent) cells, CyQUANT; details: Homo sapiens
Protocol: (§1) Viability Assay in NCI-H226 (Yap-Dependent) and SW620 Yap KO (Yap Independent) Cells
(§2) The ability of YAP-TEAD inhibitors to inhibit tumor cell growth was evaluated using two different cell lines: NCI-H226, which is a YAP dependent cell line, and SW620 cells, where YAP and TAZ were knocked out using CRISPR to generate a YAP independent cell line.
(§3) For the assay, cells were treated in duplicates with the test compounds in a 10-point dose, 1:3 dilution steps, with the top concentration starting at 30 μM (final concentration in assay). After a 96 hour incubation at 37° C., 95% rH, and 5% CO2, a cell-permeant DNA-binding dye that stains only healthy cells (CyQUANT®, Promega) was added to the cells, allowing the quantification of cell viability.
(§4) Cell Media: The NCI-H226 cells were cultured in the following media: RPMI 1640, +10% FBS, +1× GlutaMAX, +10 mM HEPES, +0.5% Pen/Strep. The SW620-KO cells were cultured in the following media: DMEM/F-12, +10% FBS, +1× GlutaMAX, +10 mM HEPES, +0.5% Pen/Strep.
(§5) Reagents: The reagents used are listed below:
(§6) Cell culture: The cells were examined using an inverted microscope to check for health, cell density, etc. To dissociate adherent cells, the monolayer of cells was washed once with pre-warmed PBS. After removing the PBS, 3 ml pre-warmed Accutase was added to a F75 flask, dispersed evenly and the flask was allowed to sit in incubator for ˜4-5 minutes.
(§7) When a single cell suspension was obtained, 7 ml of prewarmed growth media was added and resuspended with the cells. The cell suspension was transferred to a sterile 15 ml conical centrifuge tube, and spun for 5 min at 300×g, RT. The supernatant was discarded and the pellet was resuspended in 10 ml of pre-warmed growth media.
(§8) The total cell count was determined, and 20 μl of the desired cell number was added to each well of a 384 well plate using a Multidrop Combi. The plates were then incubated for 24 hours at 37° C., 95% rH, and 5% CO2.
(§9) Compound treatment: 24 hours after seeding, the cells were treated with compounds.
(§10) A 1:333 dilution of compounds, diluted in DMSO, was made to get a final concentration of 0.3% DMSO per well. To transfer the compounds to the assay plate, 120 nl was shot from Labcyte low dead volume plates to the cell plates containing 20 μl media/well with the ECHO 555 liquid handling system.
(§11) After treatment, the cells were fed with 20 μl fresh pre-warmed assay media using a Multidrop combi.
(§12) The assay plates were then incubated for 96 h at 37° C., 95% rH, and 5% CO2.
(§13) 96 h after treatment 30 μl of CyQuant® reagent was added to the assay plates using a Multidrop combi in the dark. The plates were then incubated for 1 hour at 37° C., 95% rH and 5% CO2. Thereafter, the assay plates were removed from the incubator and allowed to equilibrate to RT for 30 min in the dark without lid. Finally, they were measured using an EnVision microplate reader with a FITC bottom read program.

SW620 Yap KO cells = assay: Viability assay in SW620 Yap KO (Yap independent) cells, CyQUANT; details: Homo sapiens, SW-620
Protocol: as §1, §2, §3, §4, §5, §6, §7, §8, §9, §10, §11, §12, §13

Structure (SMILES)	IC50 (YAP-TEAD interaction)	IC50 (NCI-H226 cells)	IC50 (SW620 Yap KO cells)
Cn1cc2c(n1)c1cc([S+](C)[O-])ccc1n2-c1ccc(C(F)(F)F)cc1 (stereo not shown) [Example 32, 7-methanesulfinyl-2-methyl-4-[4-(trifluoromethyl)phenyl]-2H,4H-pyrazolo[4,3-b]indole]	100 to 10000 nM	> 10000 nM	
Cn1cc2c3cc(C(=O)O)ccc3n(-c3ccc(C4CCCC4)cc3)c2n1 [Example 22, 8-(4-cyclopentylphenyl)-2-methyl-2H,8H-pyrazolo [3,4-b]indole-5-carboxylic acid]	10 to 100 nM	100 to 1000 nM	> 30000 nM
Cn1cc2c(n1)c1cc(F)ccc1n2-c1ccc(C(F)(F)F)cc1 [Example 26, 7-fluoro-2-methyl-4-[4-(trifluoromethyl)phenyl]pyrazolo[4,3-b]indole]	10 to 100 nM	> 10000 nM	10000 to 30000 nM
Cn1cc2c(n1)c1cc(S(N)(=O)=O)ccc1n2-c1ccc(C(F)(F)F)cc1 [Example 34, 2-methyl-4-[4-(trifluoromethyl)phenyl]-2H,4H-pyrazolo[4,3-b]indole-7-sulfonamide]	10 to 100 nM	> 10000 nM	> 30000 nM
CSc1ccc2c(c1)c1cn(C)nc1n2-c1ccc(C)cc1 [Example 31, 2-methyl-8-(4-methylphenyl)-5-(methylsulfanyl)-2H,8H-pyrazolo[3,4-b]indole]	10 to 100 nM	> 10000 nM	> 30000 nM
Cn1cc2c(n1)c1cc(S(C)(=N)=O)ccc1n2-c1ccc(C(F)(F)F)cc1 (stereo not shown) [Example 35, Imino(methyl){2-methyl-4-[4-(trifluoromethyl)phenyl]-2H,4H-pyrazolo[4,3-b]indol-7-yl}-lambda6-sulfanone]	1 to 10 nM	100 to 1000 nM	> 30000 nM
Cn1cc2c3cc(C(=O)O)ccc3n(Cc3ccc(C(F)(F)F)cc3)c2n1 [Example 5, 2-Methyl-8-{[4-(trifluoromethyl)phenyl]methyl}-2H,8H-pyrazolo[3,4-b]indole-5-carboxylic acid]	10 to 100 nM	1 to 100 nM	> 30000 nM
Cc1ccc(-n2c3ccc(C(=O)O)cc3c3cn(C)nc32)cc1 [Example 9, 2-Methyl-8-(4-methylphenyl)-2H,8H-pyrazolo[3,4-b]indole-5-carboxylic acid]		1 to 100 nM	10000 to 30000 nM
Cn1cc2c3cc(C(=O)O)ccc3n(-c3cccc(C(F)(F)F)c3)c2n1 [Example 6, 2-Methyl-8-[3-(trifluoromethyl)phenyl]-2H,8H-pyrazolo[3,4-b]indole-5-carboxylic acid]	10 to 100 nM	100 to 1000 nM	> 30000 nM
Cn1cc2c3cc(NC(=O)CCl)ccc3n(-c3ccc(C(F)(F)F)cc3)c2n1 [Example 23, 2-chloro-N-[2-methyl-8-[4-(trifluoromethyl)phenyl]pyrazolo[3,4-b]indol-5-yl]acetamide]	> 10000 nM		
Cn1cc2c3cc(C(=O)O)ccc3n(-c3cccc(F)c3)c2n1 [Example 7, 8-(3-fluorophenyl)-2-methyl-2H,8H-pyrazolo[3,4-b]indole-5-carboxylic acid]	10 to 100 nM		
Cn1cc2c3cc(C(=O)N4CC(O)(Cc5ccn[nH]5)C4)ccc3n(-c3ccc(C(F)(F)F)cc3)c2n1 [Example B47, 1-{2-methyl-8-[4-(trifluoromethyl)-phenyl]-2H,8H-pyrazolo[3,4-b]indole-5-carbonyl}-3-[(1H-pyrazol-5-yl)methyl]azetidin-3-ol]	100 to 10000 nM		

Other lines, results leading:

IC50 (YAP-TEAD interaction)	IC50 (NCI-H226 cells)	IC50 (SW620 Yap KO cells)	Structure (SMILES)
10 to 100 nM	100 to 1000 nM	> 30000 nM	CNC(=O)c1ccc2c(c1)c1nn(C)cc1n2-c1ccc(C(F)(F)F)cc1 [Example 17, N,2-dimethyl-4-[4-(trifluoromethyl)phenyl]pyrazolo [4,3-b]indole-7-carboxamide]
10 to 100 nM	100 to 1000 nM	> 30000 nM	COCC(NC(=O)c1ccc2c(c1)c1cn(C)nc1n2-c1ccc(C(F)(F)F)cc1)c1cnn(C)c1 (stereo not shown) [Example B68, N-[2-methoxy-1-(1-methyl-1H-pyrazol-4-yl)ethyl]-2-methyl-8-[4-(trifluoromethyl)phenyl]-2H,8H-pyrazolo[3,4-b]indole-5-carboxamide]
10 to 100 nM	100 to 1000 nM		CCCn1ncc(CNC(=O)c2ccc3c(c2)c2cn(C)nc2n3-c2ccc(C(F)(F)F)cc2)c1C [B123^]
100 to 10000 nM			Cn1cc2c3cc(C(=O)NC4(c5cncn5C)CC4)ccc3n(-c3ccc(C(F)(F)F)cc3)c2n1 [Example B70, 2-methyl-N-[1-(1-methyl-1H-imidazol-5-yl)cyclopropyl]-8-[4-(trifluoromethyl)phenyl]-2H,8H-pyrazolo[3,4-b]indole-5-carboxamide]
10 to 100 nM			CCC(NC(=O)c1ccc2c(c1)c1cn(C)nc1n2-c1ccc(C(F)(F)F)cc1)c1c(C)noc1C (stereo not shown) [Example B71, N-[1-(3,5-dimethyl-1,2-oxazol-4-yl)propyl]-2-methyl-8-[4-(trifluoromethyl)phenyl]-2H,8H-pyrazolo[3,4-b]indole-5-carboxamide]
10 to 100 nM			Cn1cc2c3cc(C(=O)NC4CCCn5nccc54)ccc3n(-c3ccc(C(F)(F)F)cc3)c2n1 (stereo not shown) [Example B76, 2-methyl-N-(4H,5H,6H,7H-pyrazolo[1,5-a]pyridin-4-yl}-8-[4-(trifluoromethyl)phenyl]-2H,8H-pyrazolo[3,4-b]indole-5-carboxamide]
1 to 10 nM			Cn1cc2c3cc(C(=O)NCc4ccc(F)c(CO)c4)ccc3n(-c3ccc(C(F)(F)F)cc3)c2n1 [Example B19, N-{[4-fluoro-3-(hydroxymethyl)-phenyl]methyl}-2-methyl-8-[4-(trifluoromethyl)phenyl]-2H,8H-pyrazolo[3,4-b]indole-5-carboxamide]
> 10000 nM			Cn1cc2c3cc(C(=O)NCc4n[nH]c5c4CCCC5)ccc3n(-c3ccc(C(F)(F)F)cc3)c2n1 [Example B29, 2-methyl-N-[(4,5,6,7-tetrahydro-1H-indazol-3-yl)methyl]-8-[4-(trifluoromethyl)phenyl]-2H,8H-pyrazolo[3,4-b]indole-5-carboxamide]
> 10000 nM			Cn1cc2c3cc(C(=O)NC4CCCN(CCF)C4)ccc3n(-c3ccc(C(F)(F)F)cc3)c2n1 (stereo not shown) [B143^]
100 to 10000 nM			Cc1cnc2n1CCC2NC(=O)c1ccc2c(c1)c1cn(C)nc1n2-c1ccc(C(F)(F)F)cc1 (stereo not shown) [Example B57, 2-methyl-N-(3-methyl-5H,6H,7H-pyrrolo[1,2-a]imidazol-7-yl}-8-[4-(trifluoromethyl)phenyl]-2H,8H-pyrazolo[3,4-b]indole-5-carboxamide]
100 to 10000 nM			Cn1cc2c3cc(C(=O)NC4(c5nnc[nH]5)CC4)ccc3n(-c3ccc(C(F)(F)F)cc3)c2n1 [B134^]
> 10000 nM			Cc1c[nH]c(C(NC(=O)c2ccc3c(c2)c2cn(C)nc2n3-c2ccc(C(F)(F)F)cc2)C2CC2)n1 (stereo not shown) [B145^]
100 to 10000 nM			CC(CNC(=O)c1ccc2c(c1)c1cn(C)nc1n2-c1ccc(C(F)(F)F)cc1)c1ccc(F)cn1 (stereo not shown) [Example B92, N-[2-(5-fluoropyridin-2-yl)propyl]-2-methyl-8-[4-(trifluoromethyl)phenyl]-2H,8H-pyrazolo[3,4-b]indole-5-carboxamide]
100 to 10000 nM			CC(NC(=O)c1ccc2c(c1)c1cn(C)nc1n2-c1ccc(C(F)(F)F)cc1)c1nn(C)cc1O (stereo not shown) [Example B14, N-[1-(4-hydroxy-1-methyl-1H-pyrazol-3-yl)ethyl]-2-methyl-8-[4-(trifluoromethyl)phenyl]-2H,8H-pyrazolo[3,4-b]indole-5-carboxamide]
> 10000 nM			Cc1nnc2n1CCCC2NC(=O)c1ccc2c(c1)c1cn(C)nc1n2-c1ccc(C(F)(F)F)cc1 (stereo not shown) [Example B64, 2-methyl-N-(3-methyl-5H,6H,7H,8H-[1,2,4]triazolo[4,3-a]pyridin-8-yl}-8-[4-(trifluoromethyl)phenyl]-2H,8H-pyrazolo[3,4-b]indole-5-carboxamide]
100 to 10000 nM			Cn1cc2c3cc(C(=O)NC[C@@H]4C[C@H]4c4ccco4)ccc3n(-c3ccc(C(F)(F)F)cc3)c2n1 [B128^]
